According to patent publication US9605017B2, “2′, 5′-dideoxy-5-fluorouridine derivatives having cytotoxic activity, a process for the manufacture thereof and application thereof” (ADAM MICKIEWICZ UNIVERSITY, priority 2014, dated 2017):
Converted amounts (≈) assume the structure as drawn. “And” between values parts separate entries of the source, which are not always exact repeats. Equal values may be shown once. Read-outs that look alike come from different tables or passages of the source.

Key:
A549 (lung cancer) = assay: Cytotoxicity test with sulphorhodamine B, 72 h, A549 line; settings: Homo sapiens
Protocol: (§1) Cytotoxic activity tests were performed using the following cancer cell lines: MCF-7 (breast cancer), HeLa (cervical cancer) A549 (lung cancer) and KB (nasopharynx cancer) obtained from ECACC (European Collection of Cell Cultures).
(§2) Cytotoxicity tests were carried out using a standard procedure with sulphorhodamine B. They involved incubation of the cancer cell lines in the logarithmic growth phase for 72 hours with the compound tested and, subsequently, spectrophotometric determination of the degree of cell growth inhibition using adsorption of a dye (sulphorhodamine B) which binds cellular proteins.
(§3) Cells of the cell line tested in the logarithmic growth phase were seeded onto 24-well plates in a quantity of 20,000 cells/2 mL of the growth medium per well and, subsequently, incubated in an incubator at 37° C., in the 5% CO2 atmosphere for 24 hours.
(§4) Solutions of the test compounds were prepared in DMSO in the following concentration range: 0.05; 0.1; 0.5; 1; 5; 10; 50; 100; 500 μM.
(§5) The cells of the lines tested were treated with the solutions of the test compounds in a laminar-flow chamber which ensured sterile working conditions according to the following procedure: the first three wells were used as a control: they contained 20 μL of DMSO only; successive solutions of the test compound were added to subsequent wells (20 μL), starting with the lowest concentration (three wells for each concentration level). Subsequently, the plates were placed in an incubator for 72 hours.
(§6) After the end of incubation, the adhered cells were fixed by adding 500 μL of cold (4° C.) 50% trichloroacetic acid (TCA) and incubated at 4° C. for 1 hour. Subsequently, each well was rinsed with sterile water and dried. The operation was repeated five times. The fixed cells were stained for 30 minutes by adding 500 μL of 0.4% of a dye solution (sulphorhodamine B) dissolved in 1% acetic acid. Any unbound dye was removed by decanting it from the plate, and the cells were washed 4 times with 1% acetic acid. Subsequently, the plates were dried in air for approx. 5 minutes. Any unbound dye was dissolved by adding 1500 μL of 10 mM Tris-base buffer (trishydroxymethylaminomethane) to each well and shaken using an orbital shaker for 5 minutes. Subsequently, 200 μL of solution from each well was transferred to each of two wells on a new 96-well plate and absorption of the solutions was determined spectrophotometrically at a wavelength of 490-530 nm using a plate reader. Percentage inhibition of cell growth by the test compound was calculated assuming the absorption of the control solution as 100%.
(§7) Cytotoxicity tests for the other compounds and cell lines were performed following an identical procedure.
(§8) Depending on the type of the cell line, the following growth media were used: • the MCF-7 line was grown in Dulbecco's Modified Eagle's Medium (DME) from Sigma (cat. no. D5796) • the HeLa, A549 and KB lines were grown in RPMI-1640 Medium from Sigma (cat. no. R8758).
(§9) IC50 values, being concentration of a compound needed to obtain 50% inhibition of cell growth, were determined for all the derivatives tested.
(§10) To enable comparison, identical tests were performed using known cytotoxic agents: 5-fluoro-2′-deoxyuridine, 5-fluorouracil and 5′-azido-2′,5′-dideoxy-5-fluorouridine.
(§11) The values are average results of three independent determinations.

HeLa (cervical cancer) = assay: Cytotoxicity test with sulphorhodamine B, 72 h, HeLa line; settings: for IC50: Homo sapiens, HeLa; for activity compared to 5FU, cervical cancer cells: relative to 5FU
Protocol: as §1, §2, §3, §4, §5, §6, §7, §8, §9, §10, §11

KB (nasopharynx cancer) = assay: Cytotoxicity test with sulphorhodamine B, 72 h, KB line; settings: read-out: Cytotoxic activity, IC50 KB (nasopharynx cancer)
Protocol: as §1, §2, §3, §4, §5, §6, §7, §8, §9, §10, §11

MCF-7 (breast cancer) = assay: Cytotoxicity test with sulphorhodamine B, 72 h, MCF-7 line; settings: for IC50: Homo sapiens; for higher activity than 5AddFU, breast cancer cells: relative to 5AddFU; for higher activity than 5FU, breast cancer cells: relative to 5FU; for higher activity than 5FdU, breast cancer cells: relative to 5FdU
Protocol: as §1, §2, §3, §4, §5, §6, §7, §8, §9, §10, §11

[1] = test system: MCF-7, HeLa, A549 and KB cancer cell lines; assay: Cytotoxic activity tests, overall statement over the four cancer cell lines; settings: in words
Protocol: as §1, §2, §9, §10

[2] = test system: mouse tumour cells (S-180 line); settings: at concentrations as high as 400 μM; cited from earlier work
[3] = A549, 72 h, read-out: Cytotoxic activity, IC50 A549 (lung cancer)
[4] = A549, read-out: Cytotoxic activity class, A549 (lung cancer)
[5] = 72 h, read-out: Cytotoxic activity, IC50 HeLa (cervical cancer)
[6] = read-out: Cytotoxic activity class, HeLa (cervical cancer)
[7] = MCF7, 72 h, read-out: Cytotoxic activity, IC50 MCF-7 line (breast cancer)
[8] = MCF7, read-out: Cytotoxic activity class, MCF-7 line (breast cancer)

SMILES	IC50 (A549 (lung cancer); [3])	IC50 (A549 (lung cancer); [4]) [µg/mL]	IC50 (HeLa (cervical cancer); [5])	IC50 (HeLa (cervical cancer); [6]) [µg/mL]	IC50 (KB (nasopharynx cancer))	IC50 (MCF-7 (breast cancer); [7])	IC50 (MCF-7 (breast cancer); [8]) [µg/mL]	Cytotoxic activity, overall verbal grade [1]	Cytotoxic activity, overall verbal grade ([1]; listed as 5FdU)	Cytotoxic activity, overall verbal grade ([1]; listed as 5FU)	cell growth inhibition [2] [%]	Cytotoxic activity, overall verbal grade ([1]; listed as 5AddFU)	activity compared to 5FU, cervical cancer cells (HeLa (cervical cancer))	higher activity than 5AddFU, breast cancer cells (MCF-7 (breast cancer)) [fold]	higher activity than 5FU, breast cancer cells (MCF-7 (breast cancer)) [fold]	higher activity than 5FdU, breast cancer cells (MCF-7 (breast cancer)) [fold]
O=c1[nH]c(=O)n([C@H]2C[C@H](O)[C@@H](CO)O2)cc1F [5-fluoro-2′-deoxyuridine, reference compound]	3.3 µg/mL and 13.4 µM	< 4	3.2 µg/mL and 13 µM	< 4	3.37 µg/mL and 13.7 µM	2.81 µg/mL and 11.4 µM	< 4	medium-activity	Medium cytotoxic activity							
O=c1[nH]cc(F)c(=O)[nH]1 [5-fluorouracil, reference compound]	2.78 µg/mL and 21.4 µM	< 4	2.73 µg/mL and 21 µM	< 4	2.86 µg/mL and 22 µM	2.37 µg/mL and 18.2 µM	< 4	medium-activity		Medium cytotoxic activity						
[N-]=[N+]=NC[C@H]1O[C@@H](n2cc(F)c(O)nc2=O)C[C@@H]1O [5′-azido-2′,5′-dideoxy-5-fluorouridine, reference compound]	7 µg/mL and 25.8 µM	4 to 30 (≈ 14.7 to 111 µM)	7.8 µg/mL and 28.8 µM	4 to 30 (≈ 14.7 to 111 µM)	7 µg/mL and 25.8 µM	7.4 µg/mL and 27.3 µM	4 to 30 (≈ 14.7 to 111 µM)				100	Medium cytotoxic activity				
O=c1[nH]c(=O)n(C2CC(O)C(Cn3cc(C4C[N@@]5CCC4C[C@H]5[C@H](O)c4ccnc5ccccc45)nn3)O2)cc1F (stereo partly shown) [CD5AFU, 5-Fluoro-1-(4-hydroxy-5-{4-[6-(hydroxy-quinolin-4-yl-methyl)-1-aza-bicyclo[2.2.2]oct-3-yl]-[1,2,3]triazol-1-ylmethyl}-tetrahydrofuran-2-yl)-1H-pyrimidine-2,4-dione]	15.2 µg/mL and 27 µM	4 to 30 (≈ 7.1 to 53.2 µM)	13 µg/mL and 23.1 µM	4 to 30 (≈ 7.1 to 53.2 µM)	15 µg/mL and 26.6 µM	11.4 µg/mL and 20.2 µM	4 to 30 (≈ 7.1 to 53.2 µM)									
O=c1[nH]c(=O)n(C2CC(O)C(Cn3cc(C4CN5CCC4C[C@@H]5[C@@H](O)c4ccnc5ccccc45)nn3)O2)cc1F (stereo partly shown) [CN5AFU, 5-Fluoro-1-(4-hydroxy-5-{4-[6-(hydroxy-quinolin-4-yl-methyl)-1-aza-bicyclo[2.2.2]oct-3-yl]-[1,2,3]triazol-1-ylmethyl}-tetrahydrofuran-2-yl)-1H-pyrimidine-2,4-dione]	3.1 µg/mL and 5.5 µM	< 4	3.1 µg/mL and 5.5 µM	< 4	2.9 µg/mL and 5.15 µM	2.8 µg/mL and 4.97 µM	< 4						comparable activity	3	1.4	1.6
C=CC1C[N@@]2CCC1C[C@H]2[C@H](OCc1cn(CC2OC(n3cc(F)c(=O)[nH]c3=O)CC2O)nn1)c1ccnc2ccccc12 (stereo partly shown) [PCD5AFU, 5-Fluoro-1-(4-hydroxy-5-{4-[quinolin-4-yl-(5-vinyl-1-aza-bicyclo[2.2.2]oct-2-yl)-methoxymethyl]-[1,2,3]triazol-1-ylmethyl}-tetrahydrofuran-2-yl)-1H-pyrimidine-2,4-dione]	17.8 µg/mL and 29.5 µM	4 to 30 (≈ 6.63 to 49.7 µM)	18.8 µg/mL and 29.8 µM	4 to 30 (≈ 6.63 to 49.7 µM)	17.5 µg/mL and 29 µM	11.8 µg/mL and 19.6 µM	4 to 30 (≈ 6.63 to 49.7 µM)									
C=CC1C[N@@]2CCC1C[C@@H]2[C@@H](OCc1cn(CC2OC(n3cc(F)c(=O)[nH]c3=O)CC2O)nn1)c1ccnc2ccccc12 (stereo partly shown) [PCN5AFU, 5-Fluoro-1-(4-hydroxy-5-{4-[quinolin-4-yl-(5-vinyl-1-aza-bicyclo[2.2.2]oct-2-yl)-methoxymethyl]-[1,2,3]triazol-1-ylmethyl}-tetrahydrofuran-2-yl)-1H-pyrimidine-2,4-dione]	2.7 µg/mL and 4.47 µM	< 4	2.7 µg/mL and 4.47 µM	< 4	2.4 µg/mL and 3.98 µM	2.4 µg/mL and 3.98 µM	< 4						comparable activity	3	1.4	1.6
C=CC1C[N@@]2CCC1C[C@@H]2[C@@H](OCc1cn(CC2OC(n3cc(F)c(=O)[nH]c3=O)CC2O)nn1)c1ccnc2ccc(OC)cc12 (stereo partly shown) [PQD5AFU, 5-Fluoro-1-(4-hydroxy-5-{4-[(6-methoxy-quinolin-4-yl)-(5-vinyl-1-aza-bicyclo[2.2.2]oct-2-yl)-methoxymethyl]-[1,2,3]triazol-1-ylmethyl}-tetrahydrofuran-2-yl)-1H-pyrimidine-2,4-dione]	19.7 µg/mL and 31.1 µM	4 to 30 (≈ 6.31 to 47.3 µM)	19.1 µg/mL and 30.1 µM	4 to 30 (≈ 6.31 to 47.3 µM)	19.5 µg/mL and 30.8 µM	16 µg/mL and 25.2 µM	4 to 30 (≈ 6.31 to 47.3 µM)									
C=CC1C[N@@]2CCC1C[C@H]2[C@H](OCc1cn(CC2OC(n3cc(F)c(=O)[nH]c3=O)CC2O)nn1)c1ccnc2ccc(OC)cc12 (stereo partly shown) [PQN5AFU, 5-Fluoro-1-(4-hydroxy-5-{4-[(6-methoxy-quinolin-4-yl)-(5-vinyl-1-aza-bicyclo[2.2.2]oct-2-yl)-methoxymethyl]-[1,2,3]triazol-1-ylmethyl}-tetrahydrofuran-2-yl)-1H-pyrimidine-2,4-dione]	29.4 µg/mL and 46.4 µM	4 to 30 (≈ 6.31 to 47.3 µM)	29 µg/mL and 45.8 µM	4 to 30 (≈ 6.31 to 47.3 µM)	31 µg/mL and 48.9 µM	27 µg/mL and 42.6 µM	4 to 30 (≈ 6.31 to 47.3 µM)									
COc1ccc2nccc([C@H](O)[C@H]3CC4CCN3CC4c3cn(CC4OC(n5cc(F)c(=O)[nH]c5=O)CC4O)nn3)c2c1 (stereo partly shown) [QD5AFU, 5-Fluoro-1-[4-hydroxy-5-(4-{6-[hydroxy-(6-methoxy-quinolin-4-yl)-methyl]-1-aza-bicyclo[2.2.2]oct-3-yl}-[1,2,3]triazol-1-ylmethyl)-tetrahydrofuran-2-yl]-1H-pyrimidine-2,4-dione]	8 µg/mL and 13.5 µM	4 to 30 (≈ 6.74 to 50.5 µM)	7.3 µg/mL and 12.3 µM	4 to 30 (≈ 6.74 to 50.5 µM)	8.9 µg/mL and 15 µM	6.1 µg/mL and 10.3 µM	4 to 30 (≈ 6.74 to 50.5 µM)									
COc1ccc2nccc([C@@H](O)[C@@H]3CC4CC[N@]3CC4c3cn(CC4OC(n5cc(F)c(=O)[nH]c5=O)CC4O)nn3)c2c1 (stereo partly shown) [QN5AFU, 5-Fluoro-1-[4-hydroxy-5-(4-{6-[hydroxy-(6-methoxy-quinolin-4-yl)-methyl]-1-aza-bicyclo[2.2.2]oct-3-yl}-[1,2,3]triazol-1-ylmethyl)-tetrahydrofuran-2-yl]-1H-pyrimidine-2,4-dione]	16 µg/mL and 26.9 µM	4 to 30 (≈ 6.74 to 50.5 µM)	12 µg/mL and 20.2 µM	4 to 30 (≈ 6.74 to 50.5 µM)	12.6 µg/mL and 21.2 µM	12 µg/mL and 20.2 µM	4 to 30 (≈ 6.74 to 50.5 µM)									
